Our source for the relative viability values is the supplement of paper PMC10307832.

Holding throughout (assay): relative viability (nuclei count vs DMSO), 5 days (fraction); higher = more cells survive
Compound in the assay “Ibrutinib + Pemetrexed”: C=CC(=O)N1CCC[C@@H](n2nc(-c3ccc(Oc4ccccc4)cc3)c3c(N)ncnc32)C1 [Ibrutinib] + Nc1nc2[nH]cc(CCc3ccc(C(=O)N[C@@H](CCC(=O)O)C(=O)O)cc3)c2c(=O)[nH]1 [Pemetrexed] (partner 0.2 µM)
The method in brief: (§1)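 Relative viability is defined as nuclei in treated wells over nuclei in vehicle wells. Duplicate plates were run and medians reported. Lung cancer cell lines in 1536-well plates were dosed by pin tool one day after seeding, with one drug or with a fixed anchor-drug dose plus five library-drug doses (not always all listed) in √10 steps, and nuclei were counted after 5 days.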

Compound in the assay “BMX-IN-1 + Foretinib”: C=CC(=O)Nc1cc(-n2c(=O)ccc3cnc4ccc(-c5ccc(NS(C)(=O)=O)cc5)cc4c32)ccc1C [BMX-IN-1] + COc1cc2c(Oc3ccc(NC(=O)C4(C(=O)Nc5ccc(F)cc5)CC4)cc3F)ccnc2cc1OCCCN1CCOCC1 [Foretinib] (partner 0.25 µM)
The method in brief: as §1

Compound in the assay “PAC-1 + Navitoclax”: C=CCc1cccc(/C=N/NC(=O)CN2CCN(Cc3ccccc3)CC2)c1O [PAC-1] + CC1(C)CCC(c2ccc(Cl)cc2)=C(CN2CCN(c3ccc(C(=O)NS(=O)(=O)c4ccc(N[C@H](CCN5CCOCC5)CSc5ccccc5)c(S(=O)(=O)C(F)(F)F)c4)cc3)CC2)C1 [Navitoclax] (partner 0.5 µM)
Put shortly:
as §1

Compound in the assay “PAC-1 + Alpelisib”: C=CCc1cccc(/C=N/NC(=O)CN2CCN(Cc3ccccc3)CC2)c1O [PAC-1] + Cc1nc(NC(=O)N2CCC[C@H]2C(N)=O)sc1-c1ccnc(C(C)(C)C(F)(F)F)c1 [Alpelisib] (partner 2 µM)
Put shortly: as §1

Turning to NCI-H1395, the relative viability stood at 0.752 with Ibrutinib + Pemetrexed (first compound 0.005 µM); 0.934 in the assay with Ibrutinib + Pemetrexed (first compound 0.01581 µM); 0.804 in the assay with Ibrutinib + Pemetrexed (first compound 0.05 µM); 0.797 in the assay with Ibrutinib + Pemetrexed (first compound 0.1581 µM); 1.07 with Ibrutinib + Pemetrexed (first compound 0.5 µM); 1.1 in the assay with BMX-IN-1 + Foretinib (first compound 0.02 µM). In addition, the relative viability in the assay with BMX-IN-1 + Foretinib (first compound 0.2 µM) was found to be 0.968; in the assay with BMX-IN-1 + Foretinib (first compound 0.6325 µM) it was 0.949; with BMX-IN-1 + Foretinib (first compound 2 µM), 0.908; with PAC-1 + Navitoclax (first compound 0.02 µM), 1.21; with PAC-1 + Navitoclax (first compound 0.06325 µM) it was 1.16; in the assay with PAC-1 + Navitoclax (first compound 0.2 µM) it was 1.32. In addition, the relative viability stood at 1.32 in the assay with PAC-1 + Navitoclax (first compound 2 µM); 1.19 with PAC-1 + Alpelisib (first compound 0.02 µM); 1.02 in the assay with PAC-1 + Alpelisib (first compound 0.06325 µM); 1.02 with PAC-1 + Alpelisib (first compound 0.2 µM); 1.02 with PAC-1 + Alpelisib (first compound 2 µM).

EKVX: the relative viability in the assay with Ibrutinib + Pemetrexed (first compound 0.005 µM) came out at 0.33; with Ibrutinib + Pemetrexed (first compound 0.01581 µM), 0.419; with Ibrutinib + Pemetrexed (first compound 0.05 µM), 0.359; in the assay with Ibrutinib + Pemetrexed (first compound 0.1581 µM), 0.336; with Ibrutinib + Pemetrexed (first compound 0.5 µM), 0.222; with BMX-IN-1 + Foretinib (first compound 0.02 µM), 0.784. In addition, the relative viability worked out at 0.902 with BMX-IN-1 + Foretinib (first compound 0.2 µM); 0.965 with BMX-IN-1 + Foretinib (first compound 0.6325 µM); 0.893 with BMX-IN-1 + Foretinib (first compound 2 µM); 1.07 with PAC-1 + Navitoclax (first compound 0.02 µM); 0.926 with PAC-1 + Navitoclax (first compound 0.06325 µM); 0.86 in the assay with PAC-1 + Navitoclax (first compound 0.2 µM). In addition, the relative viability with PAC-1 + Navitoclax (first compound 2 µM) amounted to 0.979; with PAC-1 + Alpelisib (first compound 0.02 µM), 0.788; in the assay with PAC-1 + Alpelisib (first compound 0.06325 µM), 0.956; in the assay with PAC-1 + Alpelisib (first compound 0.2 µM), 0.801; in the assay with PAC-1 + Alpelisib (first compound 2 µM), 0.899.

Turning to NCI-H23, the relative viability in the assay with Ibrutinib + Pemetrexed (first compound 0.005 µM) came to 0.698; with Ibrutinib + Pemetrexed (first compound 0.01581 µM), 0.614; with Ibrutinib + Pemetrexed (first compound 0.05 µM), 0.845; with Ibrutinib + Pemetrexed (first compound 0.1581 µM), 0.527; with Ibrutinib + Pemetrexed (first compound 0.5 µM), 0.812; with BMX-IN-1 + Foretinib (first compound 0.02 µM) it was 1.18. Further, the relative viability with BMX-IN-1 + Foretinib (first compound 0.2 µM) was 0.965; in the assay with BMX-IN-1 + Foretinib (first compound 0.6325 µM) it was 0.938; with BMX-IN-1 + Foretinib (first compound 2 µM), 0.999; with PAC-1 + Navitoclax (first compound 0.02 µM), 0.569; with PAC-1 + Navitoclax (first compound 0.06325 µM) it was 0.891; with PAC-1 + Navitoclax (first compound 0.2 µM) it was 0.793. Besides, the relative viability in the assay with PAC-1 + Navitoclax (first compound 2 µM) is 0.881; with PAC-1 + Alpelisib (first compound 0.02 µM), 0.529; with PAC-1 + Alpelisib (first compound 0.06325 µM), 0.692; with PAC-1 + Alpelisib (first compound 0.2 µM), 0.741; in the assay with PAC-1 + Alpelisib (first compound 2 µM) it was 0.764.

As to NCI-H3122, the relative viability with Ibrutinib + Pemetrexed (first compound 0.005 µM) is 0.214; in the assay with Ibrutinib + Pemetrexed (first compound 0.01581 µM), 0.203; with Ibrutinib + Pemetrexed (first compound 0.05 µM), 0.219; with Ibrutinib + Pemetrexed (first compound 0.1581 µM), 0.191; with Ibrutinib + Pemetrexed (first compound 0.5 µM) it was 0.301; in the assay with BMX-IN-1 + Foretinib (first compound 0.02 µM), 1. Moreover, the relative viability in the assay with BMX-IN-1 + Foretinib (first compound 0.2 µM) is 0.951; in the assay with BMX-IN-1 + Foretinib (first compound 0.6325 µM), 0.957; with BMX-IN-1 + Foretinib (first compound 2 µM), 0.984; with PAC-1 + Navitoclax (first compound 0.02 µM), 0.975; with PAC-1 + Navitoclax (first compound 0.06325 µM), 1.02; in the assay with PAC-1 + Navitoclax (first compound 0.2 µM), 1.01. Besides, the relative viability with PAC-1 + Navitoclax (first compound 2 µM) was 0.993; in the assay with PAC-1 + Alpelisib (first compound 0.02 µM) it was 0.66; in the assay with PAC-1 + Alpelisib (first compound 0.06325 µM) it was 0.808; in the assay with PAC-1 + Alpelisib (first compound 0.2 µM), 0.837; in the assay with PAC-1 + Alpelisib (first compound 2 µM), 0.747.
